This is an account of results in ChEMBL document CHEMBL4028801, “A multifactorial approach to hepatobiliary transporter assessment enables improved therapeutic compound development” (Toxicol Sci, 2013).

Data set [1] concerns the target Bile salt export pump (Homo sapiens, UniProt O95342). The data set is described as follows: Inhibition of human BSEP overexpressed in Sf9 cell membrane vesicles assessed as uptake of [3H]-taurocholate in presence of ATP measured after 15 to 20 mins by membrane vesicle transport assay. It is filed as ADME, cell-based.
Data set [2] in a line: Ratio of drug concentration at steady state in human at 400 mg, po BID for 5 to 10 days after 12 hrs to IC50 for human MRP4 overexpressed in Sf9 insect cells. It is filed as ADME, organism-based. As to conditions: in vivo.
Data set [3] in a line: Ratio of drug concentration at steady state in human at 400 mg, po BID for 5 to 10 days after 12 hrs to IC50 for human BSEP overexpressed in Sf9 insect cells. In kind it is ADME, organism-based. The settings on record: in vivo.
For data set [4], the target named is ATP-binding cassette sub-family C member 2 (Homo sapiens, UniProt Q92887). The data set is described as follows: Inhibition of human MRP2 overexpressed in Sf9 cell membrane vesicles assessed as uptake of [3H]-estradiol-17beta-D-glucuronide in presence of ATP and GSH measured after 20 mins by membrane vesicle transport assay.
The target of data set [5] is ATP-binding cassette sub-family C member 3 (Homo sapiens, UniProt O15438). The data set is described as follows: Inhibition of human MRP3 overexpressed in Sf9 insect cell membrane vesicles assessed as uptake of [3H]-estradiol-17beta-D-glucuronide in presence of ATP and GSH measured after 10 mins by membrane vesicle transport assay. It is filed as ADME, cell-based.
Data set [6] is described as follows: AUC in human at 400 mg, po BID for 5 to 10 days after 12 hrs. It is filed as ADME, organism-based. Also noted: dose 400 mg, time < 12 hr, route oral. The settings on record: in vivo.
The target in data set [7] is T1, ATP-binding cassette sub-family C member 4 (Homo sapiens, UniProt O15439).
T1 sequence (O15439 whole entry): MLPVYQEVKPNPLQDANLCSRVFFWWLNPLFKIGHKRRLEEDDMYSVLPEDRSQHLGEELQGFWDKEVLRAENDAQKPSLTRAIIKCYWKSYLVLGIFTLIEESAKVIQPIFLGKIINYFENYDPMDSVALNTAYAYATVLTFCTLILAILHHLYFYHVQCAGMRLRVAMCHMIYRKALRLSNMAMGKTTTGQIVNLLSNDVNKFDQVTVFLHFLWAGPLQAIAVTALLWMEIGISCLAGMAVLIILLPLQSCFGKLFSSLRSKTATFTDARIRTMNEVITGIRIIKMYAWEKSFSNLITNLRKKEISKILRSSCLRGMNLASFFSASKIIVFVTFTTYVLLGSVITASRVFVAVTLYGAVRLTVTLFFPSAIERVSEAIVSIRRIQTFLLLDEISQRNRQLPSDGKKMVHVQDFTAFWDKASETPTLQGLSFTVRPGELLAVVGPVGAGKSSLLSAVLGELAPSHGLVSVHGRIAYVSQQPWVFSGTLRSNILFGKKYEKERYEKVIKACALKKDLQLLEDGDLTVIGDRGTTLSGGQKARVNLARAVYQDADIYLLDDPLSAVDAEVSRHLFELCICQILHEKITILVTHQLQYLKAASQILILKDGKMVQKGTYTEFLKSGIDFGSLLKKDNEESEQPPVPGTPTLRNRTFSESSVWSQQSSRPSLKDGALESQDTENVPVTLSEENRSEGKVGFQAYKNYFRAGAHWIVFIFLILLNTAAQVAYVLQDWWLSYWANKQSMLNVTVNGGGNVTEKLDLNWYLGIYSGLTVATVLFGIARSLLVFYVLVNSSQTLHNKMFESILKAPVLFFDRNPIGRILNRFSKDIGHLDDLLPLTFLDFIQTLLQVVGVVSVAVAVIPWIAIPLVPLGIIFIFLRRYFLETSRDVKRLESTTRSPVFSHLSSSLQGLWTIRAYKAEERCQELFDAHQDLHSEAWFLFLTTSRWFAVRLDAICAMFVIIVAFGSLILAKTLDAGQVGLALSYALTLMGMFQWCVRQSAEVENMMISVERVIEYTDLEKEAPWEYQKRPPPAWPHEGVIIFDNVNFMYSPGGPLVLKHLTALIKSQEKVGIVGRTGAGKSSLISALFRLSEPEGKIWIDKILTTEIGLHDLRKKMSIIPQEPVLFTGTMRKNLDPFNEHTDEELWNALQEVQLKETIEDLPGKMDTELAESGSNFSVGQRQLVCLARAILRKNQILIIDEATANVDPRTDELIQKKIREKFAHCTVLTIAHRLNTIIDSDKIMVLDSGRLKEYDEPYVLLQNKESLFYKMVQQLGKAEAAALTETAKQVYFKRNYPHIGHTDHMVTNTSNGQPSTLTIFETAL
The data set is described as follows: Inhibition of human MRP4 overexpressed in Sf9 cell membrane vesicles assessed as uptake of [3H]-estradiol-17beta-D-glucuronide in presence of ATP and GSH measured after 20 mins by membrane vesicle transport assay. It is filed as ADME, cell-based.

The nature of data set [8]: Drug concentration at steady state in human at 400 mg, po BID for 5 to 10 days after 12 hrs. In kind it is ADME, organism-based. As to conditions: in vivo, read-out: Css.
Data set [9] can be described thus: AUC in human at 300 mg, po QD after 24 hrs. In kind it is ADME, organism-based. Also noted: time < 24 hr, dose 300 mg, route oral. The settings on record: in vivo.
Data set [10] in a line: Drug concentration at steady state in human at 300 mg, po QD after 24 hrs. In kind it is ADME, organism-based. As to conditions: in vivo, read-out: Css.
A short description of data set [11]: Ratio of drug concentration at steady state in human at 300 mg, po QD after 24 hrs to IC50 for human BSEP overexpressed in Sf9 insect cells. In kind it is ADME, organism-based. The settings on record: in vivo.
Data set [12] in a line: Ratio of drug concentration at steady state in human at 300 mg, po QD after 24 hrs to IC50 for human MRP4 overexpressed in Sf9 insect cells. In kind it is ADME, organism-based. The settings on record: in vivo.
Data set [13] in a line: Ratio of drug concentration at steady state in human at 60 to 100 mg/m2, iv via infusion for 1 hr every 3 weeks measured after 1 hr to IC50 for human BSEP overexpressed in Sf9 insect cells. It is filed as ADME, organism-based.
A short description of data set [14]: Drug concentration at steady state in human at 60 to 100 mg/m2, iv via infusion for 1 hr every 3 weeks measured after 1 hr. It is filed as ADME, organism-based. As to conditions: in vivo, read-out: Css.
Data set [15] can be described thus: AUC in human at 60 to 100 mg/m2, iv via infusion for 1 hr every 3 weeks measured after 1 hr. It is filed as ADME, organism-based. Also on record: time < 1 hr, route intravenous. As to conditions: in vivo.
The nature of data set [16]: Drug concentration at steady state in human at 400 to 600 mg, po QD after 24 hrs. It is filed as ADME, organism-based. The settings on record: in vivo, read-out: Css.
A short description of data set [17]: AUC in human at 400 to 600 mg, po QD after 24 hrs. As to conditions: in vivo. In kind it is ADME, organism-based.

Chain of ATP-binding cassette sub-family C member 2 (Q92887 whole entry): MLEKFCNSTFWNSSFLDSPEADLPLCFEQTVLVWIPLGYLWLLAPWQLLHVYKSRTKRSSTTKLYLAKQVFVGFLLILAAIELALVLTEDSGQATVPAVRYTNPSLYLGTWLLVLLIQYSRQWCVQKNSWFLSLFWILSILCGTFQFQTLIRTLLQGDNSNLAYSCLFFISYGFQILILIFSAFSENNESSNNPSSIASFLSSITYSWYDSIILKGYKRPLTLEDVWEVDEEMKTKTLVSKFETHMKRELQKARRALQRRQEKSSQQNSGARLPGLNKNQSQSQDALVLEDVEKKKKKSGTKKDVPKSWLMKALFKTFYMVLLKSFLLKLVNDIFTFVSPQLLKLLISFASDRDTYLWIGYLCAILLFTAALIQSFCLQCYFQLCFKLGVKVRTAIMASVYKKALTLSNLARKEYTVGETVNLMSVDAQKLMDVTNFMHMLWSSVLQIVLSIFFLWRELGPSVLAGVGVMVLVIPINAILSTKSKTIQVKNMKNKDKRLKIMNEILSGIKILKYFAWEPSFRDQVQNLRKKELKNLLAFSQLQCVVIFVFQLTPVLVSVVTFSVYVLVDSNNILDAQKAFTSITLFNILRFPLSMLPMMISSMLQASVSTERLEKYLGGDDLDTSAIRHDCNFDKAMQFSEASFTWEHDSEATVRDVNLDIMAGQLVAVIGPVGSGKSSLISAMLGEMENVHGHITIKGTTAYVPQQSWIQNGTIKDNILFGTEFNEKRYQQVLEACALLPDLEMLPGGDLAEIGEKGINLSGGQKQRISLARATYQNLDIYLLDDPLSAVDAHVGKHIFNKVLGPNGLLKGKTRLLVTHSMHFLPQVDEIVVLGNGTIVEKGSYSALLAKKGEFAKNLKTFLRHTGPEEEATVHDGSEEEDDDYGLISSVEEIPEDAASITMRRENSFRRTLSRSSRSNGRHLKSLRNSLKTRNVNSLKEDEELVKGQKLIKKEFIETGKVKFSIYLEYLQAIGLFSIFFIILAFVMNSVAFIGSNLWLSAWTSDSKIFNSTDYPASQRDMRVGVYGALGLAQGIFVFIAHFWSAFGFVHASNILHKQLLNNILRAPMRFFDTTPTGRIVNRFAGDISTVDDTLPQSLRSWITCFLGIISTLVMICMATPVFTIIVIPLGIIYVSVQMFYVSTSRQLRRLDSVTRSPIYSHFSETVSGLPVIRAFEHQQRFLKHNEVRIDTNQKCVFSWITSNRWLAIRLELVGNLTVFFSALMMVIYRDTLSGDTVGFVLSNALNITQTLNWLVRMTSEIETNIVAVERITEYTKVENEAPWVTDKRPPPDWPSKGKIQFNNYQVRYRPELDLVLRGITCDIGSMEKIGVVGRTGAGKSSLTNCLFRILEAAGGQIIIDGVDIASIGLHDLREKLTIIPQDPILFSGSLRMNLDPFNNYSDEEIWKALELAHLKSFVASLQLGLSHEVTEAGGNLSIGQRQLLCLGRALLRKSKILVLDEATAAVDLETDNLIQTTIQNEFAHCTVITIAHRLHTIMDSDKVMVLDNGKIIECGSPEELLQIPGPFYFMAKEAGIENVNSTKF
Chain of ATP-binding cassette sub-family C member 3 (O15438 whole entry): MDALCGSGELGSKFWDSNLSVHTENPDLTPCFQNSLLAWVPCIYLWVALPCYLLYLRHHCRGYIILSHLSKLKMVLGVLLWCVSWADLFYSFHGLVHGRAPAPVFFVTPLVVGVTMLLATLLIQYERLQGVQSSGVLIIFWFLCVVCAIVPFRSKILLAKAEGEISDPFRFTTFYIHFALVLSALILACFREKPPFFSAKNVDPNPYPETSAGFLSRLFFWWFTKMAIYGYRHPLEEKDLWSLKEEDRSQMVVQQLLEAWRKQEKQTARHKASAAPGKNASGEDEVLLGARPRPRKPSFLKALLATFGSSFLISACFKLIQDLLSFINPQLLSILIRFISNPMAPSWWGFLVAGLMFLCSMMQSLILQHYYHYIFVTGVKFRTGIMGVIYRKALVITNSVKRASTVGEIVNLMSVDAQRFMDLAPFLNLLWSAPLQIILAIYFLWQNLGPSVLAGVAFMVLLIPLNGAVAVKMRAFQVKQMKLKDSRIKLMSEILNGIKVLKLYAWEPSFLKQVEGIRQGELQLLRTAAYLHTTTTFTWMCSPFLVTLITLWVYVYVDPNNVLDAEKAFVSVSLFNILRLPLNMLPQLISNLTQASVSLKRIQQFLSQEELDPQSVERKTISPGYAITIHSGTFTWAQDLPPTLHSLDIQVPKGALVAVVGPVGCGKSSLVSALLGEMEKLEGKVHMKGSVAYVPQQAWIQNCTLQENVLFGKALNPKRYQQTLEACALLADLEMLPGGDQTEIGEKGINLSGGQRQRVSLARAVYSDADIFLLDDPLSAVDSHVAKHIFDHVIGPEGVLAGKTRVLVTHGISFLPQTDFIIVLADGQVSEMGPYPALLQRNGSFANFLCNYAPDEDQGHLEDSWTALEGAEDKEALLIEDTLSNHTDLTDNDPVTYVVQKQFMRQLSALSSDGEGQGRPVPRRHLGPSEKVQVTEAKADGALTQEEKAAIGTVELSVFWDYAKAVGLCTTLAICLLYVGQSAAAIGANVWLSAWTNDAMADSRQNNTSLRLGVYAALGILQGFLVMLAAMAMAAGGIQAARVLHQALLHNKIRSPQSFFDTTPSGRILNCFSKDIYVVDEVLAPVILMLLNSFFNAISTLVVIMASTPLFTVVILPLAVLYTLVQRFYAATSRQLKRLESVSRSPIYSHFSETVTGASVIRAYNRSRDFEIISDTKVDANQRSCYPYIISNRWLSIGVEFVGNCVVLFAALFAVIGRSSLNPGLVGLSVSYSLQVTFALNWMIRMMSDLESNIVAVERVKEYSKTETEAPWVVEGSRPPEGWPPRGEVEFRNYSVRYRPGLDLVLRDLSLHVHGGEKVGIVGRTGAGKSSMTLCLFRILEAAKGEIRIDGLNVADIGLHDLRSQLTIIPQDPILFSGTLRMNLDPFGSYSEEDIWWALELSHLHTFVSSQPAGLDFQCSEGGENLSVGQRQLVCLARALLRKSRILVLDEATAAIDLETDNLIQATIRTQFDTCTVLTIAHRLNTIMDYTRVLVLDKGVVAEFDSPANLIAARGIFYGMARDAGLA
Chain of Bile salt export pump (O95342 whole entry): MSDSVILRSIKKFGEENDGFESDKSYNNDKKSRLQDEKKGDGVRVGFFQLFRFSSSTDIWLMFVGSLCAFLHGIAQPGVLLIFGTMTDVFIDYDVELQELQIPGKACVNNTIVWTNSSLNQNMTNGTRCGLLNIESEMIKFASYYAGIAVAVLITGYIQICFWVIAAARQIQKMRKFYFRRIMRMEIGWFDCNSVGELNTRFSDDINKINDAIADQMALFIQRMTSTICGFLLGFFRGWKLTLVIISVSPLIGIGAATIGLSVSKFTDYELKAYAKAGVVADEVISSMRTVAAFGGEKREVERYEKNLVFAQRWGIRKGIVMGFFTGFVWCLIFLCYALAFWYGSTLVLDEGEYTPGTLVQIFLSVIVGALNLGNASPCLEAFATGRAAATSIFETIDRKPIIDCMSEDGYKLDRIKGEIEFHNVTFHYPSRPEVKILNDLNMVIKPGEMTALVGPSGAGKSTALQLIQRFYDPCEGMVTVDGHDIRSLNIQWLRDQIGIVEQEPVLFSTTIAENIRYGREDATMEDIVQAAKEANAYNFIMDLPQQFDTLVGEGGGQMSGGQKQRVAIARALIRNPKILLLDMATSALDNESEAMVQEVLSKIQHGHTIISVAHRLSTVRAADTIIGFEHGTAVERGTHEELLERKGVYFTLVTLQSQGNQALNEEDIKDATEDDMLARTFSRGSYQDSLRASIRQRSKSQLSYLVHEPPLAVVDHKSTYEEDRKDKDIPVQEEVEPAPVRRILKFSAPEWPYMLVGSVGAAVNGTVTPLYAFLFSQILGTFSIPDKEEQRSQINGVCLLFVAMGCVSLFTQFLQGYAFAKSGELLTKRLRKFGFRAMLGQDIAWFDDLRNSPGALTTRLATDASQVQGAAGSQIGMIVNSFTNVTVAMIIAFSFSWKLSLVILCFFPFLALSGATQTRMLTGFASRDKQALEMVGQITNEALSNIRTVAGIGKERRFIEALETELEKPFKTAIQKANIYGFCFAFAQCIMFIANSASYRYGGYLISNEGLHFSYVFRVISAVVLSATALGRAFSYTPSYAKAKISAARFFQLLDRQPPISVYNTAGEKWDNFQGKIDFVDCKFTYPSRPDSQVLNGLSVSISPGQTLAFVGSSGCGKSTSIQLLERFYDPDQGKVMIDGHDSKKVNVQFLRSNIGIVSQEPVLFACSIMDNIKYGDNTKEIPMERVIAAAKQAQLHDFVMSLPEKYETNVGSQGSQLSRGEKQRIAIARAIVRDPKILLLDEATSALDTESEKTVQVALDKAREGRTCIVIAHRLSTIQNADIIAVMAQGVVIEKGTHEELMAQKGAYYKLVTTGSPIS

By IC50 is commonly meant the concentration that gives 50% inhibition. The AUC is the area under the concentration-time curve, a measure of exposure. Turning to `CC[C@H]1OC(=O)[C@H](C)C(=O)[C@H](C)[C@@H](O[C@@H]2O[C@H](C)C[C@H](N(C)C)[C@H]2O)[C@](C)(OC)C[C@@H](C)C(=O)[C@H](C)[C@H]2N(CCCCn3cnc(-c4cccnc4)c3)C(=O)O[C@]12C` [TELITHROMYCIN], the IC50 in data set [1] was 5 µM; in [4], greater than 133 µM; in data set [5], greater than 133 µM; in data set [7], 7.1 µM. In addition, the Ratio in data set [2] is 0.136; in data set [3], 0.193. The exposure (AUC) at 12 h in data set [6] is 11.6 µM·h. For the same molecule, the concentration at 12 h in data set [8] came to 964 nM.

For the molecule `O=C(Nc1cccc2c(=O)cc(-c3nnn[nH]3)oc12)c1ccc(OCCCCc2ccccc2)cc1`, the IC50 in data set [1] was 2.97 µM; in data set [4], greater than 133 µM; in [5], greater than 133 µM; in data set [7] it was 2.7 µM. Besides, in [9], the area under the curve (AUC) at 24 h is 8.71 µM·h. The concentration at 24 h in data set [10] stood at 363 nM. In addition, the Ratio in [11] is 0.122; in data set [12], 0.134.

Consider `CC(=O)O[C@@]12CO[C@@H]1C[C@H](O)[C@@]1(C)C(=O)[C@H](O)C3=C(C)[C@@H](OC(=O)[C@H](O)[C@@H](NC(=O)OC(C)(C)C)c4ccccc4)C[C@@](O)([C@@H](OC(=O)c4ccccc4)[C@H]21)C3(C)C` [DOCETAXEL ANHYDROUS], for which the concentration for half-maximal inhibition (IC50) was 41 µM in data set [1], greater than 133 µM in data set [4], greater than 133 µM in [5] and greater than 133 µM in [7]. Besides, in data set [13], the Ratio was 0.16. For the same molecule, the concentration at 1 h in data set [14] is 6520 nM. The AUC at 1 h in data set [15] amounted to 6.51 µM·h.

In the case of `Cc1ccc(NC(=O)c2ccc(CN3CCN(C)CC3)cc2)cc1Nc1nccc(-c2cccnc2)n1` [IMATINIB], the 50% inhibitory concentration (IC50) in data set [4], in data set [5] and in [7] was greater than 133 µM in each case. In data set [16], the concentration at 24 h turned out to be 4410 nM. For the same molecule, the AUC at 24 h in data set [17] amounted to 106 µM·h.
